According to ChEMBL document CHEMBL5143582, “Genome-Guided Discovery of Antifungal Filipins from a Deep-Sea-Derived Streptomyces antibioticus” (2022):
Values after ≈ are worked out from the molar mass of the structure shown.

system: Candida albicans; experiment: Antifungal activity Candida albicans CMCC(F) 98001 assessed as inhibition of fungal growth incubated for 24 hrs by broth micro dilution method; assay type: functional

| MIC [µg/mL] | Structure (SMILES) |
| --- | --- |
| > 12.5 | C\C1=C/C=C/C=C/C=C/C=C/C[C@@H](C)OC(=O)C[C@@H](O)C[C@@H](O)C[C@@H](O)C[C@@H](O)C[C@@H](O)C[C@@H]1O |
| 1.56 (≈ 2.44 µM) | C\C1=C/C=C/C=C/C=C/C=C/[C@H](O)[C@@H](C)OC(=O)[C@H](CCCC(C)C)[C@@H](O)C[C@@H](O)C[C@@H](O)C[C@@H](O)C[C@@H](O)C[C@@H](O)C[C@@H]1O |
| > 12.5 | CCCCCC[C@@H]1CC[C@@H](O)C[C@@H](O)C[C@@H](O)C[C@@H](O)C[C@@H](O)C[C@@H](O)C[C@H](O)/C(C)=C/C=C/C=C/C=C/C=C/[C@H](O)[C@@H](C)OC1=O |
| 6.25 (≈ 10.2 µM) | CCCC[C@H]1C(=O)O[C@H](C)[C@@H](O)/C=C/C=C/C=C/C=C/C=C(\C)[C@@H](O)C[C@H](O)C[C@H](O)C[C@H](O)C[C@H](O)C[C@H](O)C[C@@H]1O |
| > 12.5 | C\C1=C/C=C/C=C/C=C/C=C/C[C@@H](C)OC(=O)C[C@@H](O)C[C@@H](O)C[C@@H](O)C[C@@H](O)C[C@@H](O)C[C@@H](O)C[C@@H]1O |
| 3.13 (≈ 5.01 µM) | CCCCC[C@H]1C(=O)O[C@H](C)[C@@H](O)/C=C/C=C/C=C/C=C/C=C(\C)[C@@H](O)C[C@H](O)C[C@H](O)C[C@H](O)C[C@H](O)C[C@H](O)C[C@@H]1O |
| > 12.5 | C[C@@H]1C/C=C/C=C/C=C/C=C/C=C/[C@@H](O)C[C@H](O)C[C@H](O)C[C@H](O)C[C@H](O)C[C@H](O)C[C@H](O)CC(=O)O1 |
| 3.13 (≈ 5.01 µM) | C\C1=C/C=C/C=C/C=C/C=C/[C@H](O)[C@@H](C)OC(=O)[C@H](CCC(C)C)[C@@H](O)C[C@@H](O)C[C@@H](O)C[C@@H](O)C[C@@H](O)C[C@@H](O)C[C@@H]1O |
| 1.56 (≈ 2.44 µM) | CCCCCC[C@H]1C(=O)O[C@H](C)[C@@H](O)/C=C/C=C/C=C/C=C/C=C(\C)[C@@H](O)C[C@H](O)C[C@H](O)C[C@H](O)C[C@H](O)C[C@H](O)C[C@@H]1O |
| > 12.5 | C\C1=C/C=C/C=C/C=C/C=C/[C@H](O)[C@@H](C)OC(=O)C[C@@H](O)C[C@@H](O)C[C@@H](O)C[C@@H](O)C[C@@H](O)C[C@@H](O)C[C@@H]1O |
| > 12.5 | CC(C)CC[C@H]1C(=O)O[C@H](C)[C@@H](O)/C=C/C=C/C=C/C=C/C=C/[C@@H](O)C[C@H](O)C[C@H](O)C[C@H](O)C[C@H](O)C[C@H](O)C[C@@H]1O |
| 12.5 (≈ 19.1 µM) | CCCCC[C@@H](O)[C@H]1C(=O)O[C@H](C)[C@@H](O)/C=C/C=C/C=C/C=C/C=C(\C)[C@@H](O)C[C@H](O)C[C@H](O)C[C@H](O)C[C@H](O)C[C@H](O)C[C@@H]1O [FILIPIN] |

| Structure (SMILES) | MIC [µg/mL] |
| --- | --- |
| C[C@@H]1[C@H](O)[C@@H](C)/C=C/C=C/C=C/C=C/C=C/C=C/C=C/[C@H](O[C@@H]2O[C@H](C)[C@@H](O)[C@H](N)[C@@H]2O)C[C@@H]2O[C@](O)(C[C@@H](O)C[C@@H](O)[C@H](O)CC[C@@H](O)C[C@@H](O)CC(=O)O[C@H]1C)C[C@H](O)[C@H]2C(=O)O [AMPHOTERICIN B] | 0.2 (≈ 0.216 µM) |
